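Each compound was tested at five concentrations against cells in 96-well plates for 48 hours. At the GI50, growth is halved.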 The source made the active and inactive calls. Cut-off read from the data, not from the text of the source: active = GI50 up to about 1.1 µM and inactive = higher.
How the values were obtained:
Assay in all cases: inhibition of tumour cell growth, NCI panel, 48 h
SK-MEL-28 = system: SK-MEL-28
U-251 = system: U-251
OVCAR-8 = system: OVCAR-8
NCI-H23 = system: NCI-H23
EKVX = system: EKVX
SW-620 = system: SW-620
SK-MEL-2 = system: SK-MEL-2
CCRF-CEM = system: CCRF-CEM
NCI-H460 = system: NCI-H460
M14 = system: M14
MOLT-4 = system: MOLT-4
UACC-257 = system: UACC-257
OVCAR-5 = system: OVCAR-5
SF-295 = system: SF-295
K562 = system: K562
HCT-116 = system: HCT-116
SNB-19 = system: SNB-19
NCI-H522 = system: NCI-H522
LOX IMVI = system: LOX IMVI
NCI/ADR-RES = system: NCI/ADR-RES

## CCc1c(C)[nH]c2c1/C(=N/N=C1\CCCc3[nH]c(C)c(CC)c31)CCC2
SK-MEL-28
  GI50: 16.7 µM (inactive)
U-251
  GI50: 17 µM (inactive)
OVCAR-8
  GI50: 25.8 µM (inactive)
NCI-H23
  GI50: 18.5 µM (inactive)
EKVX
  GI50: 33 µM (inactive)
SW-620
  GI50: 28.5 µM (inactive)
SK-MEL-2
  GI50: > 100 µM (inactive)
CCRF-CEM
  GI50: 19.2 µM (inactive)
NCI-H460
  GI50: 18 µM (inactive)
M14
  GI50: 20.7 µM (inactive)
MOLT-4
  GI50: 12.8 µM (inactive)
UACC-257
  GI50: 17.5 µM (inactive)
OVCAR-5
  GI50: 25.6 µM (inactive)
SF-295
  GI50: 20.1 µM (inactive)
K562
  GI50: 16.7 µM (inactive)
HCT-116
  GI50: 16.9 µM (inactive)
SNB-19
  GI50: 41.4 µM (inactive)
NCI-H522
  GI50: 14.3 µM (inactive)
LOX IMVI
  GI50: 20.9 µM (inactive)

## CN(C)CCNC(=O)c1cc([N+](=O)[O-])cn1C
SK-MEL-28
  GI50: > 100 µM (inactive)
U-251
  GI50: > 100 µM (inactive)
OVCAR-8
  GI50: > 100 µM (inactive)
NCI-H23
  GI50: > 100 µM (inactive)
EKVX
  GI50: > 100 µM (inactive)
SW-620
  GI50: > 100 µM (inactive)
SK-MEL-2
  GI50: > 100 µM (inactive)
CCRF-CEM
  GI50: > 100 µM (inactive)
NCI-H460
  GI50: > 100 µM (inactive)
M14
  GI50: > 100 µM (inactive)
MOLT-4
  GI50: > 100 µM (inactive)
UACC-257
  GI50: > 100 µM (inactive)
OVCAR-5
  GI50: > 100 µM (inactive)
SF-295
  GI50: > 100 µM (inactive)
K562
  GI50: > 100 µM (inactive)
HCT-116
  GI50: > 100 µM (inactive)
SNB-19
  GI50: > 100 µM (inactive)
NCI-H522
  GI50: > 100 µM (inactive)
LOX IMVI
  GI50: > 100 µM (inactive)

## N#C/C(=C\c1cc(OCc2ccccc2)c(OCc2ccccc2)cn1)C(N)=O
SK-MEL-28
  GI50: > 100 µM (inactive)
U-251
  GI50: > 100 µM (inactive)
OVCAR-8
  GI50: > 100 µM (inactive)
NCI-H23
  GI50: > 100 µM (inactive)
EKVX
  GI50: > 100 µM (inactive)
SW-620
  GI50: > 100 µM (inactive)
SK-MEL-2
  GI50: > 100 µM (inactive)
CCRF-CEM
  GI50: 32.1 µM (inactive)
NCI-H460
  GI50: > 100 µM (inactive)
M14
  GI50: > 100 µM (inactive)
MOLT-4
  GI50: 23.3 µM (inactive)
UACC-257
  GI50: > 100 µM (inactive)
OVCAR-5
  GI50: > 100 µM (inactive)
SF-295
  GI50: > 100 µM (inactive)
K562
  GI50: 26.2 µM (inactive)
HCT-116
  GI50: 35.5 µM (inactive)
SNB-19
  GI50: > 100 µM (inactive)
NCI-H522
  GI50: 19.1 µM (inactive)
LOX IMVI
  GI50: 30.5 µM (inactive)

## Cc1ccc(/N=C2\N=C(N3CC(C)OC(C)C3)c3ccccc32)cc1 (stereo not given)
SK-MEL-28
  GI50: 28.4 µM (inactive)
U-251
  GI50: 39.4 µM (inactive)
OVCAR-8
  GI50: 33.4 µM (inactive)
NCI-H23
  GI50: 28.5 µM (inactive)
EKVX
  GI50: 32.6 µM (inactive)
SW-620
  GI50: 33.9 µM (inactive)
SK-MEL-2
  GI50: 24.4 µM (inactive)
CCRF-CEM
  GI50: 23.3 µM (inactive)
NCI-H460
  GI50: 27.2 µM (inactive)
M14
  GI50: 19.3 µM (inactive)
MOLT-4
  GI50: 20.1 µM (inactive)
UACC-257
  GI50: 22.7 µM (inactive)
OVCAR-5
  GI50: 40.6 µM (inactive)
SF-295
  GI50: 29.9 µM (inactive)
K562
  GI50: 34 µM (inactive)
HCT-116
  GI50: 20.2 µM (inactive)
SNB-19
  GI50: 35 µM (inactive)
NCI-H522
  GI50: > 10 µM (inactive)
LOX IMVI
  GI50: 28.2 µM (inactive)

## O=C1C[C@@H](Sc2ccccc2)C2(OCCO2)[C@H]2ON3CCC[C@@H]3[C@@H]12
SK-MEL-28
  GI50: 7.83 µM (inactive)
U-251
  GI50: 3.33 µM (inactive)
OVCAR-8
  GI50: 2.03 µM (inactive)
NCI-H23
  GI50: 4.61 µM (inactive)
SW-620
  GI50: 2.14 µM (inactive)
SK-MEL-2
  GI50: 3.72 µM (inactive)
CCRF-CEM
  GI50: 0.782 µM (active)
NCI-H460
  GI50: 4.36 µM (inactive)
M14
  GI50: 2.12 µM (inactive)
MOLT-4
  GI50: 1.04 µM (active)
UACC-257
  GI50: 13.4 µM (inactive)
NCI/ADR-RES
  GI50: 3.31 µM (inactive)
SF-295
  GI50: 11.4 µM (inactive)
K562
  GI50: 2.56 µM (inactive)
HCT-116
  GI50: 1.55 µM (inactive)
SNB-19
  GI50: 14.8 µM (inactive)
LOX IMVI
  GI50: 3.1 µM (inactive)

## CC(N)Cc1ccc(Cl)cc1 (stereo not given)
SK-MEL-28
  GI50: > 100 µM (inactive)
U-251
  GI50: > 100 µM (inactive)
OVCAR-8
  GI50: > 100 µM (inactive)
NCI-H23
  GI50: 39.5 µM (inactive)
EKVX
  GI50: > 100 µM (inactive)
SW-620
  GI50: > 100 µM (inactive)
SK-MEL-2
  GI50: > 100 µM (inactive)
CCRF-CEM
  GI50: 61.2 µM (inactive)
NCI-H460
  GI50: 50 µM (inactive)
M14
  GI50: > 100 µM (inactive)
MOLT-4
  GI50: 68.9 µM (inactive)
UACC-257
  GI50: > 100 µM (inactive)
OVCAR-5
  GI50: 58.5 µM (inactive)
SF-295
  GI50: 47.9 µM (inactive)
K562
  GI50: 50.6 µM (inactive)
HCT-116
  GI50: 41 µM (inactive)
SNB-19
  GI50: > 100 µM (inactive)
NCI-H522
  GI50: > 100 µM (inactive)
LOX IMVI
  GI50: > 100 µM (inactive)

## CN(C)c1nncc2[nH]cnc12
SK-MEL-28
  GI50: > 100 µM (inactive)
U-251
  GI50: > 100 µM (inactive)
OVCAR-8
  GI50: > 100 µM (inactive)
NCI-H23
  GI50: > 100 µM (inactive)
EKVX
  GI50: > 100 µM (inactive)
SW-620
  GI50: > 100 µM (inactive)
SK-MEL-2
  GI50: > 100 µM (inactive)
CCRF-CEM
  GI50: > 100 µM (inactive)
NCI-H460
  GI50: > 100 µM (inactive)
M14
  GI50: > 100 µM (inactive)
MOLT-4
  GI50: > 100 µM (inactive)
UACC-257
  GI50: > 100 µM (inactive)
NCI/ADR-RES
  GI50: > 100 µM (inactive)
OVCAR-5
  GI50: > 100 µM (inactive)
SF-295
  GI50: > 100 µM (inactive)
K562
  GI50: > 100 µM (inactive)
HCT-116
  GI50: > 100 µM (inactive)
SNB-19
  GI50: > 100 µM (inactive)
